Experiments:
Conditions in all cases: Hela microsomes 100 μg, 14C-acyl-CoA, NADH (FIG. 3)
hSCD1 = target: T1, hSCD1 (Homo sapiens, UniProt O00767); test: Δ9-desaturase activity in microsomes of Hela cells over-expressing hSCD1; assay type: biochemical; set-up: Cloning of the full-length human and mouse SCD cDNAs: The full coding region of human SCDs; expressed in transfected cells
T1 sequence (O00767 1-359): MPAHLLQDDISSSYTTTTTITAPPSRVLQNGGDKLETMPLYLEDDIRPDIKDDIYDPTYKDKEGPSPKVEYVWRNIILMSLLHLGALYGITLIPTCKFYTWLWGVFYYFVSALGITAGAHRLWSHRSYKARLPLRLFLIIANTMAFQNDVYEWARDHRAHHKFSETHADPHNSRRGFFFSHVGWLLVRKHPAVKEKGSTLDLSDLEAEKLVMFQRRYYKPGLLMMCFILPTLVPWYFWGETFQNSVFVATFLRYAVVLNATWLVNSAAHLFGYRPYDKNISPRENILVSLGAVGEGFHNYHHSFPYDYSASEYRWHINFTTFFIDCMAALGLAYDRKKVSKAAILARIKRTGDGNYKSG
Method: (§1) HeLa cells were cultured at 37° C. in a humidified 5% CO2 atmosphere in Dulbecco's modified Eagle's medium supplemented with 10% (v/v) fetal bovine serum and penicillin/streptomycin. The cells were resuspended in cytomix buffer (120 mM KCl, 0.15 mM CaCl2, 25 mM Hepes/KOH, pH 7.6, 2 mM EGTA, 5 mM MgCl2), and 400 μl of suspension was transferred to a 0.4-cm electroporation cuvette (Invitrogen). 35 μg of pcDNA3 DNA harboring either human or mouse SCD constructs were transfected into Hela cells which have very low Δ9-desaturase activity. DNA was added to the cell suspension in the cuvette and mixed well. The mixture was then exposed to a single electric pulse of 300 V with a capacitance of 1000 microfarads using an Invitrogen pulse system. The cells were allowed to recover in culture medium at 37° C. (5% CO2 atmosphere) for 48 h before harvesting and performing SCD activity assays.
(§2) Δ9-desaturase activity: Microsomes were purified from Hela cells by differential centrifugation and resuspended in a 0.1 M potassium phosphate buffer (pH 6.8). Δ9-desaturase activity was assayed at 25° C. for 7 minutes with either [^14C] stearoyl-CoA or [^14C] palmito-CoA, 2 mM NADH, and 100 μg microsomal protein (Miyazaki, M. et al. (2001) J Biol Chem 276, 39455-39461).

mSCD2 = target: T2, mSCD2 (Mus musculus, UniProt P13011); test: Δ9-desaturase activity in microsomes of Hela cells over-expressing mSCD2; assay type: biochemical
T2 sequence (P13011 1-358): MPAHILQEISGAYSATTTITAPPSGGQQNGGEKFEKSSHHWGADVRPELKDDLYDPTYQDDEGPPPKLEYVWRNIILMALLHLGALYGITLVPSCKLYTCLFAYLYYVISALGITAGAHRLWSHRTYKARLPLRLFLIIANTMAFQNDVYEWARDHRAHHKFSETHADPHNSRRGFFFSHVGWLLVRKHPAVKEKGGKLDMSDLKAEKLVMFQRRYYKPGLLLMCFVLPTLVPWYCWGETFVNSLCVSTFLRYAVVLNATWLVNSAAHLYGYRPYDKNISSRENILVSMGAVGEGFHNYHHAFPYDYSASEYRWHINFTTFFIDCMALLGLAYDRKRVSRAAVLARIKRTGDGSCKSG
Method: as §1, §2

hSCD5 = target: T3, hSCD5 (Homo sapiens, UniProt Q86SK9); test: Δ9-desaturase activity in microsomes of Hela cells over-expressing hSCD5; assay type: biochemical; set-up: Cloning of the full-length human and mouse SCD cDNAs: The full coding region of human SCDs; expressed in transfected cells
T3 sequence (Q86SK9 1-330): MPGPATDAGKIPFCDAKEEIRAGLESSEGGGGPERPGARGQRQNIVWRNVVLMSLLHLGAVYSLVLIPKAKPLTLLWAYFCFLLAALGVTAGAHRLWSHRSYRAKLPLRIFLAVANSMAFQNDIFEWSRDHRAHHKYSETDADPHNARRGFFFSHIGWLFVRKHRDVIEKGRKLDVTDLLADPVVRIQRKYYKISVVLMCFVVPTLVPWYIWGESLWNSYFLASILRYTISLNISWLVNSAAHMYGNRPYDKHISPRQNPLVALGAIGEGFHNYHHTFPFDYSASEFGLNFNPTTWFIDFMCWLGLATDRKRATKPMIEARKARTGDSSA
Method: as §1, §2

mSCD1 = target: T4, mSCD1 (Mus musculus, UniProt P13516); test: Δ9-desaturase activity in microsomes of Hela cells over-expressing mSCD1; assay type: biochemical
T4 sequence (P13516 1-355): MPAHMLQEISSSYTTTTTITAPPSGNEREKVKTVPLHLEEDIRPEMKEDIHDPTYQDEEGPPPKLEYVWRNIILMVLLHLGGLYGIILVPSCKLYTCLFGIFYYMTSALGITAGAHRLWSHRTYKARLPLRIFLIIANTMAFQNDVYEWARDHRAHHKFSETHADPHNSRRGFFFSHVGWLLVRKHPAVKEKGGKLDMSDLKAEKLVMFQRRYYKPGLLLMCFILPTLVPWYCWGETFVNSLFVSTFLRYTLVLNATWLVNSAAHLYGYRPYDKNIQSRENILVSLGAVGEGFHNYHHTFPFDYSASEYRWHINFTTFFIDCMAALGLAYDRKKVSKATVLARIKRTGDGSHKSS
Method: as §1, §2

mSCD4 = test: Δ9-desaturase activity in microsomes of Hela cells over-expressing mSCD4; assay type: biochemical, mouse
Method: as §1, §2

CCCCCCCCCCCCCCCCCC(=O)SCCNC(=O)CCNC(=O)[C@H](O)C(C)(C)COP(=O)(O)OP(=O)(O)OC[C@H]1O[C@@H](n2cnc3c(N)ncnc32)[C@H](O)[C@@H]1OP(=O)(O)O [18:0-CoA, stearoyl-CoA]
Δ9-desaturase activity towards 18:0-CoA relative to 16:0-CoA (hSCD1): 2.2 fold
Δ9-desaturase activity towards 18:0-CoA relative to 16:0-CoA (mSCD2): 1.6 fold
utilization of 18:0-CoA relative to 16:0-CoA (hSCD5): 6 fold
Δ9-desaturase activity towards 18:0-CoA relative to 16:0-CoA (mSCD1): 2.2 fold
Δ9-desaturase activity towards 18:0-CoA relative to 16:0-CoA (mSCD4): 2.0 fold
